{
  "source": "patent US20070027130A1",
  "about": "“Tricyclic 6-alkylidene-penem beta-lactamase inhibitors and beta-lactam antibiotic combination: a broad spectrum antibiotic” (priority 2005, published 2007)",
  "assay_in_all_cases": "MIC microbroth dilution",
  "type_in_all_cases": "cell-based",
  "key": {"E. coli GC 1480 OXA-1": {"system": "E. coli GC 1480 OXA-1", "conditions": "Escherichia coli, GC1480OXA1, β-lactamase class D, MHBII, 35° C. 18 hr, read-out: Minimal Inhibitory Concentration", "procedure": "(§1) The in vitro activities of the antibiotics were determined by the microbroth dilution method as recommended by the National Committee for Clinical Laboratory Standards (NCCLS). (NCCLS. 2000. Methods for Dilution Antimicrobial Susceptibility Tests for Bacteria That Grow Aerobically; Approved Standards: M7-A5, vol. 19. National Committee for Clinical Laboratory Standards, Villanova, Pa.). Mueller-Hinton II broth (MHBII) (BBL Cockeysville, Md.), was used for the testing procedure. […]. The plates were incubated for 18-22 hours at 35 C. in ambient air."}, "E. coli GC 6539 CMY-2": {"system": "E. coli GC 6539 CMY-2", "conditions": "Escherichia coli, GC6539CMY2, β-lactamase class C, MHBII, 35° C. 18 hr, read-out: Minimal Inhibitory Concentration", "procedure": "as §1"}, "[1]": {"system": "K. pneumoniae GC 7822 Act 1", "conditions": "Klebsiella pneumoniae, GC7822ACT1, β-lactamase class C, MHBII, 35° C. 18 hr, read-out: Minimal Inhibitory Concentration", "procedure": "as §1"}, "[2]": {"system": "S. marcescens PT 696 Inducible AmpC", "conditions": "Serratia marcescens, β-lactamase class C, MHBII, 35° C. 18 hr, read-out: Minimal Inhibitory Concentration", "procedure": "as §1"}, "[3]": {"system": "K. pneumoniae GC 7820 Act 1", "conditions": "Klebsiella pneumoniae, GC7820ACT1, β-lactamase class C, MHBII, 35° C. 18 hr, read-out: Minimal Inhibitory Concentration", "procedure": "as §1"}, "[4]": {"system": "K. pn GC 6651 (TEM-1 + SHV-1 + SHV-5)", "conditions": "Klebsiella pneumoniae, β-lactamase class A, A (ESBL), MHBII, 35° C. 18 hr, read-out: Minimal Inhibitory Concentration", "procedure": "as §1"}, "E. coli ATCC 35218 TEM-1": {"system": "E. coli ATCC 35218 TEM-1", "conditions": "Escherichia coli, ATCC35218, 18 h, read-out: Minimal Inhibitory Concentration", "procedure": "as §1"}, "[5]": {"system": "K. pn GC 1554 (TEM-1 + TEM-26 + SHV-1)", "conditions": "Klebsiella pneumoniae, β-lactamase class A, A (ESBL), MHBII, 35° C. 18 hr, read-out: Minimal Inhibitory Concentration", "procedure": "as §1"}, "[6]": {"system": "E. coli GAR 6649 TEM, OXA, CTX (By PCR only)", "conditions": "Escherichia coli, β-lactamase class A, A (ESBL), D, MHBII, 35° C. 18 hr, read-out: Minimal Inhibitory Concentration", "procedure": "as §1"}, "K. pn GC 1830 (SHV-2)": {"system": "K. pn GC 1830 (SHV-2)", "conditions": "Klebsiella pneumoniae, β-lactamase class A (ESBL), MHBII, 35° C. 18 hr, read-out: Minimal Inhibitory Concentration", "procedure": "as §1"}, "E. coli GC 1684 (TEM-10)": {"system": "E. coli GC 1684 (TEM-10)", "conditions": "Escherichia coli, β-lactamase class A (ESBL), MHBII, 35° C. 18 hr, read-out: Minimal Inhibitory Concentration", "procedure": "as §1"}, "K. pn GC 1510 (TEM-10)": {"system": "K. pn GC 1510 (TEM-10)", "conditions": "Klebsiella pneumoniae, β-lactamase class A (ESBL), MHBII, 35° C. 18 hr, read-out: Minimal Inhibitory Concentration", "procedure": "as §1"}, "K. pn GC 6639 (SHV-13)": {"system": "K. pn GC 6639 (SHV-13)", "conditions": "Klebsiella pneumoniae, β-lactamase class A (ESBL), MHBII, 35° C. 18 hr, read-out: Minimal Inhibitory Concentration", "procedure": "as §1"}, "[7]": {"system": "P. aeruginosa PT 9236 PTZ-R", "conditions": "Pseudomonas aeruginosa, PT9236PTZR; P. aeruginosa PT 9236, piperacillin-tazobactam-resistant; MHBII, 35° C. 18 hr; read-out: Minimal Inhibitory Concentration", "procedure": "as §1"}, "E. coli GC 1995 (TEM-10)": {"system": "E. coli GC 1995 (TEM-10)", "conditions": "Escherichia coli, β-lactamase class A (ESBL), MHBII, 35° C. 18 hr, read-out: Minimal Inhibitory Concentration", "procedure": "as §1"}, "[8]": {"system": "C. freundii GC 4164 Inducible AmpC", "conditions": "Citrobacter freundii, β-lactamase class C, MHBII, 35° C. 18 hr, read-out: Minimal Inhibitory Concentration", "procedure": "as §1"}, "[9]": {"system": "P. aeruginosa PT 9025 PTZ-R", "conditions": "Pseudomonas aeruginosa, PT9025PTZR, 18 h, read-out: Minimal Inhibitory Concentration", "procedure": "as §1"}, "[10]": {"system": "K. pn GC 3057 (CAZ-R; P/T-R)", "conditions": "Klebsiella pneumoniae, β-lactamase class A, A (ESBL), MHBII, 35° C. 18 hr, read-out: Minimal Inhibitory Concentration", "procedure": "as §1"}, "[11]": {"system": "P. aeruginosa GC 3153 Inducible AmpC", "conditions": "Pseudomonas aeruginosa, β-lactamase class C, MHBII, 35° C. 18 hr, read-out: Minimal Inhibitory Concentration", "procedure": "as §1"}, "E. coli GC 2920 (IRT-2)": {"system": "E. coli GC 2920 (IRT-2)", "conditions": "Escherichia coli, β-lactamase class A (IRT), MHBII, 35° C. 18 hr, read-out: Minimal Inhibitory Concentration", "procedure": "as §1"}, "[12]": {"system": "E. coli GC 4971 OXA-1, TEM-1", "conditions": "Escherichia coli, β-lactamase class A, D, MHBII, 35° C. 18 hr, read-out: Minimal Inhibitory Concentration", "procedure": "as §1"}, "E. coli GC 2894 (AmpC)": {"system": "E. coli GC 2894 (AmpC)", "conditions": "Escherichia coli, β-lactamase class C, MHBII, 35° C. 18 hr, read-out: Minimal Inhibitory Concentration", "procedure": "as §1"}, "[13]": {"system": "P. aeruginosa GC 4161 Stably derepressed AmpC", "conditions": "Pseudomonas aeruginosa, 18 h, read-out: Minimal Inhibitory Concentration", "procedure": "as §1"}, "[14]": {"system": "E. cloacae GC 1712 AmpC-inducible", "conditions": "Enterobacter cloacae, β-lactamase class C, MHBII, 35° C. 18 hr, read-out: Minimal Inhibitory Concentration", "procedure": "as §1"}, "[15]": {"system": "E. cloacae GC 7065 TEM-26, SHV-12 Amp C inducable", "conditions": "Enterobacter cloacae, β-lactamase class A (ESBL), MHBII, 35° C. 18 hr, read-out: Minimal Inhibitory Concentration", "procedure": "as §1"}},
  "data": [
    {"smiles": "CO/N=C(\\C(=O)N[C@@H]1C(=O)N2C(C(=O)[O-])=C(C[N+]3(C)CCCC3)CS[C@H]12)c1csc(N)n1", "note": "[Cefepime]", "values": [
      {"measurement": "MIC", "setting": "E. coli GC 1480 OXA-1", "result": 4, "unit": "µg/mL"},
      {"measurement": "MIC", "setting": "E. coli GC 6539 CMY-2", "result": 2, "unit": "µg/mL"},
      {"measurement": "MIC", "setting": "[1]", "result": "> 16", "unit": "µg/mL"},
      {"measurement": "MIC", "setting": "[2]", "result": 0.5, "unit": "µg/mL"},
      {"measurement": "MIC", "setting": "[3]", "result": 0.5, "unit": "µg/mL"},
      {"measurement": "MIC", "setting": "[4]", "result": 2, "unit": "µg/mL"},
      {"measurement": "MIC", "setting": "E. coli ATCC 35218 TEM-1", "result": 0.03, "unit": "µg/mL"},
      {"measurement": "MIC", "setting": "[5]", "result": 8, "unit": "µg/mL"},
      {"measurement": "MIC", "setting": "[6]", "result": "> 16", "unit": "µg/mL"},
      {"measurement": "MIC", "setting": "K. pn GC 1830 (SHV-2)", "result": 2, "unit": "µg/mL"},
      {"measurement": "MIC", "setting": "E. coli GC 1684 (TEM-10)", "result": "> 16", "unit": "µg/mL"},
      {"measurement": "MIC", "setting": "K. pn GC 1510 (TEM-10)", "result": 0.5, "unit": "µg/mL"},
      {"measurement": "MIC", "setting": "K. pn GC 6639 (SHV-13)", "result": 8, "unit": "µg/mL"},
      {"measurement": "MIC", "setting": "[7]", "result": "> 16", "unit": "µg/mL"},
      {"measurement": "MIC", "setting": "E. coli GC 1995 (TEM-10)", "result": "> 16", "unit": "µg/mL"},
      {"measurement": "MIC", "setting": "[8]", "result": 2, "unit": "µg/mL"},
      {"measurement": "MIC", "setting": "[9]", "result": "> 16", "unit": "µg/mL"},
      {"measurement": "MIC", "setting": "[10]", "result": 16, "unit": "µg/mL"},
      {"measurement": "MIC", "setting": "[11]", "result": 16, "unit": "µg/mL"},
      {"measurement": "MIC", "setting": "E. coli GC 2920 (IRT-2)", "result": 0.06, "unit": "µg/mL"},
      {"measurement": "MIC", "setting": "[12]", "result": 2, "unit": "µg/mL"},
      {"measurement": "MIC", "setting": "E. coli GC 2894 (AmpC)", "result": 2, "unit": "µg/mL"},
      {"measurement": "MIC", "setting": "[13]", "result": "> 16", "unit": "µg/mL"},
      {"measurement": "MIC", "setting": "[14]", "result": 0.25, "unit": "µg/mL"},
      {"measurement": "MIC", "setting": "[15]", "result": 16, "unit": "µg/mL"}
    ]}
  ]
}
